The text below walks through data of PubChem BioAssay AID330 (DTP/NCI, 2004).

For the experiment, the system named is P388 leukemia ip, CD2F1 mice, survival T/C. Kind of experiment: NCI In Vivo Anticancer Drug Screen. Data for tumor model P388 Leukemia (intraperitoneal) in CD2F1 (CDF1) mice. The conditions noted are these: endpoint: median survival time, higher = longer survival. In outline:
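Mice carrying the transplanted tumor received test compound or vehicle. Survival was recorded in each group, and the value is the treated-group measurement divided by that of the vehicle-treated control group.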

Setting [1] is: dose: 12.5 mg/kg/injection, schedule: Q01DX009 (ip), vehicle: saline with Tween-80.
Where [2] appears, read: dose: 25.0 mg/kg/injection, schedule: Q01DX009 (ip), vehicle: Klucel (hydroxypropylcellulose) (HPC).
Setting [3] is: dose: 25.0 mg/kg/injection, schedule: Q01DX009 (ip), vehicle: saline with Tween-80.
Where [4] appears, read: dose: 50.0 mg/kg/injection, schedule: Q01DX009 (ip), vehicle: Klucel (hydroxypropylcellulose) (HPC).
Where [5] appears, read: dose: 50.0 mg/kg/injection, schedule: Q01DX009 (ip), vehicle: saline with Tween-80.
Where [6] appears, read: dose: 100.0 mg/kg/injection, schedule: Q01DX009 (ip), vehicle: Klucel (hydroxypropylcellulose) (HPC).
The mark [7] stands for this setting: dose: 100.0 mg/kg/injection, schedule: Q01DX009 (ip), vehicle: saline with Tween-80.
Setting [8] is: dose: 12.5 mg/kg/injection, schedule: Q01DX009 (ip), vehicle: Klucel (hydroxypropylcellulose) (HPC).
[9] abbreviates: dose: 50.0 mg/kg/injection, schedule: Q01DX005 (ip), vehicle: saline with Tween-80.
[10] abbreviates: dose: 100.0 mg/kg/injection, schedule: Q01DX005 (ip), vehicle: saline with Tween-80.
Setting [11] is: dose: 200.0 mg/kg/injection, schedule: Q01DX005 (ip), vehicle: saline with Tween-80.
Setting [12] is: dose: 200.0 mg/kg/injection, schedule: Q01DX009 (ip), vehicle: saline with Tween-80.
The mark [13] stands for this setting: dose: 200.0 mg/kg/injection, schedule: Q01DX009 (ip), vehicle: Klucel (hydroxypropylcellulose) (HPC).
Where [14] appears, read: dose: 60.0 mg/kg/injection, schedule: Q01DX005 (ip), vehicle: saline with Tween-80.
The mark [15] stands for this setting: dose: 120.0 mg/kg/injection, schedule: Q01DX005 (ip), vehicle: saline with Tween-80.
Setting [16] is: dose: 240.0 mg/kg/injection, schedule: Q01DX005 (ip), vehicle: saline with Tween-80.
The mark [17] stands for this setting: dose: 60.0 mg/kg/injection, schedule: Q01DX005 (ip), vehicle: saline.
The mark [18] stands for this setting: dose: 120.0 mg/kg/injection, schedule: Q01DX005 (ip), vehicle: saline.
The mark [19] stands for this setting: dose: 240.0 mg/kg/injection, schedule: Q01DX005 (ip), vehicle: saline.

Values joined by “and” are separate entries in the source; they are usually repeats but may differ in a detail not shown here. Identical values can stand only once. Inconclusive results and toxic doses are left out.

`C1CCNCC1.O=C([CH-]C(=O)C(F)(F)F)c1cccs1.O=C([CH-]C(=O)C(F)(F)F)c1cccs1.O=C([CH-]C(=O)C(F)(F)F)c1cccs1.O=C([CH-]C(=O)C(F)(F)F)c1cccs1.[Eu+3]`: the T/C is 95 % of control under setting [1]; 105 % of control under setting [2]; 95 % of control under setting [3]; 109 % of control under setting [4]; 99 % of control under setting [5]; 109 % of control under setting [6]. Also, under setting [7], the T/C was 89 % of control.

As for `CCn1c2ccccc2c2cc(N/C=C/C3=[N+](C)c4ccccc4C3(C)C)ccc21`, the T/C is, setting by setting: (dose: 1.56 mg/kg/injection, schedule: Q01DX009 (ip), vehicle: Klucel (hydroxypropylcellulose) (HPC)) 107 % of control and 111 % of control; (dose: 3.12 mg/kg/injection, schedule: Q01DX009 (ip), vehicle: Klucel (hydroxypropylcellulose) (HPC)) 100 % of control and 114 % of control; (dose: 6.25 mg/kg/injection, schedule: Q01DX009 (ip), vehicle: Klucel (hydroxypropylcellulose) (HPC)) 116 % of control (2×) and 123 % of control; under setting [8], 109 % of control; under setting [2], 96 % of control.

As to `COc1ccc2ccccc2c1CC(C)O` (configuration not stated), the T/C reads like this: under setting [9], 101 % of control; under setting [10], 98 % of control; under setting [11], 102 % of control.

`N#CSCc1ccc(Cl)cc1Cl`: the T/C was 109 % of control under setting [5], 113 % of control under setting [7] and 113 % of control under setting [12].

For the molecule `O=[C-]/C=C\[C-]=O.[C-]#[O+].[C-]#[O+].[C-]#[O+].[C-]#[O+].[Fe+2]`, the T/C (dose: 12.5 mg/kg/injection, schedule: Q01DX005 (ip), vehicle: saline with Tween-80) was 112 % of control; the T/C (dose: 25.0 mg/kg/injection, schedule: Q01DX005 (ip), vehicle: saline with Tween-80) was 110 % of control; the T/C under setting [9] was 100 % of control.

For the molecule `CSc1nc2ccc(N=Cc3ccccc3O)cc2s1`, the T/C is, setting by setting: under setting [4], 91 % of control; under setting [6], 89 % of control; under setting [13], 100 % of control.

In the case of `CC(C)C(NC(=O)C(=O)c1c[nH]c2ccc(Cl)cc12)C(=O)O` (configuration not stated), the T/C by setting is: under setting [14], 100 % of control; under setting [15], 91 % of control; under setting [16], 90 % of control.

Consider `CN(C)c1nc(N)nc(Nc2ccc(Br)cc2)c1N=O`, for which the T/C under setting [3] is 100 % of control; the T/C under setting [5] is 91 % of control; the T/C under setting [6] is 113 % of control; the T/C under setting [7] is 100 % of control; the T/C (dose: 100.0 mg/kg/injection, schedule: Q04DX003 (ip), vehicle: saline with Tween-80) is 108 % of control; the T/C under setting [13] is 109 % of control. In addition, the T/C by setting is: (dose: 200.0 mg/kg/injection, schedule: Q04DX003 (ip), vehicle: saline with Tween-80) 95 % of control; (dose: 400.0 mg/kg/injection, schedule: Q01DX009 (ip), vehicle: Klucel (hydroxypropylcellulose) (HPC)) 95 % of control; (dose: 400.0 mg/kg/injection, schedule: Q04DX003 (ip), vehicle: saline with Tween-80) 95 % of control.

Take `COc1cc(C(c2cc3c(cc2O)OCO3)N2CCCC2)cc(OC)c1OC` (configuration not stated): the T/C (dose: 60.0 mg/kg/injection, schedule: Q01DX005 (ip), vehicle: Klucel (hydroxypropylcellulose) (HPC)) is 118 % of control; the T/C (dose: 120.0 mg/kg/injection, schedule: Q01DX005 (ip), vehicle: Klucel (hydroxypropylcellulose) (HPC)) is 106 % of control; the T/C (dose: 240.0 mg/kg/injection, schedule: Q01DX005 (ip), vehicle: Klucel (hydroxypropylcellulose) (HPC)) is 101 % of control.

`COc1cc(OC)cc(N2C(N)=NC(N)=NC2(C)C)c1`: the T/C was 104 % of control (dose: 12.5 mg/kg/injection, schedule: Q01DX005 (ip), vehicle: Klucel (hydroxypropylcellulose) (HPC)); 105 % of control (dose: 25.0 mg/kg/injection, schedule: Q01DX005 (ip), vehicle: Klucel (hydroxypropylcellulose) (HPC)); 102 % of control and 107 % of control (dose: 50.0 mg/kg/injection, schedule: Q01DX005 (ip), vehicle: Klucel (hydroxypropylcellulose) (HPC)).

`O=C(O)c1ccccc1.[Eu]`: the T/C by setting is: under setting [8], 88 % of control; under setting [2], 87 % of control; under setting [4], 89 % of control and 92 % of control; under setting [6], 90 % of control; under setting [13], 89 % of control.

In the case of `CCC(CCC(C)C1CCC2C3CC=C4CC(OP(=[Se])(c5ccccc5)c5ccccc5)CCC4(C)C3CCC12C)C(C)C` (configuration not stated), the T/C was 102 % of control (dose: 13.75 mg/kg/injection, schedule: Q01DX001 (ip), vehicle: Klucel (hydroxypropylcellulose) (HPC)); 106 % of control (dose: 27.5 mg/kg/injection, schedule: Q01DX001 (ip), vehicle: Klucel (hydroxypropylcellulose) (HPC)); 104 % of control (dose: 55.0 mg/kg/injection, schedule: Q01DX001 (ip), vehicle: Klucel (hydroxypropylcellulose) (HPC)).

Turning to `CCCCCCCSc1ncnc2c1ncn2C(=O)Sc1ccccc1`, the T/C was 104 % of control under setting [9], 99 % of control under setting [10] and 107 % of control under setting [11].

Turning to `O=C1CCC(=O)N1CN1CCCCC1`, the T/C runs as follows: under setting [17], 93 % of control; under setting [18], 113 % of control; under setting [19], 118 % of control.

For the molecule `O=C1N=CC2(N=N2)C(=O)N1`, the T/C (dose: 3.75 mg/kg/injection, schedule: Q01DX005 (ip), vehicle: saline with Tween-80) was 161 % of control; the T/C (dose: 7.5 mg/kg/injection, schedule: Q01DX005 (ip), vehicle: saline with Tween-80) is 155 % of control and 168 % of control; the T/C (dose: 15.0 mg/kg/injection, schedule: Q01DX005 (ip), vehicle: saline with Tween-80) is 178 % of control and 190 % of control.

Consider `O=C(Nc1cccc(C(=O)Nc2ccc(S(=O)(=O)O)c3cc(S(=O)(=O)O)cc(S(=O)(=O)O)c23)c1)Nc1cccc(C(=O)Nc2cccc3c(S(=O)(=O)O)c(S(=O)(=O)O)cc(S(=O)(=O)O)c23)c1`, for which the T/C under setting [17] was 88 % of control, the T/C under setting [18] was 99 % of control and the T/C under setting [19] was 93 % of control.

Consider `N#Cc1ccccc1NC(=O)Nc1ccc(Cl)cc1Cl`, for which the T/C reads like this: (dose: 0.46 mg/kg/injection, schedule: Q01DX005 (ip), vehicle: saline with Tween-80) 94 % of control; (dose: 0.93 mg/kg/injection, schedule: Q01DX005 (ip), vehicle: saline with Tween-80) 97 % of control; (dose: 1.87 mg/kg/injection, schedule: Q01DX005 (ip), vehicle: saline with Tween-80) 99 % of control; under setting [14], 91 % of control and 92 % of control; under setting [15], 88 % of control; under setting [16], 98 % of control.

Take `CN1CNC(=O)c2n[nH]nc21`: the T/C by setting is: (dose: 12.5 mg/kg/injection, schedule: Q04DX002 (ip), vehicle: Klucel (hydroxypropylcellulose) (HPC)) 99 % of control; (dose: 25.0 mg/kg/injection, schedule: Q04DX002 (ip), vehicle: Klucel (hydroxypropylcellulose) (HPC)) 108 % of control; (dose: 50.0 mg/kg/injection, schedule: Q04DX002 (ip), vehicle: Klucel (hydroxypropylcellulose) (HPC)) 100 % of control and 102 % of control.

Consider `C[N+](C)(C)CC(=O)NNC(=O)CCn1[nH]c(=O)c(Cl)c(Cl)c1=O`, for which the T/C is, setting by setting: under setting [14], 104 % of control; under setting [15], 99 % of control; under setting [16], 97 % of control.

`CCCCCCC[n+]1cccc(C(=O)N2CCOCC2)c1`: the T/C was 104 % of control under setting [1], 98 % of control under setting [3] and 100 % of control under setting [5].

For `O=S(=O)(O)CCCBr`, the T/C runs as follows: under setting [7], 100 % of control; under setting [12], 104 % of control; (dose: 400.0 mg/kg/injection, schedule: Q01DX009 (ip), vehicle: saline with Tween-80) 95 % of control.

As for `CCCOC(=O)Nc1ccc2c(c1)c1c3[nH]c(=O)c4cccn4c3ccc1n2CC`, the T/C reads like this: (dose: 100.0 mg/kg/injection, schedule: Q01DX001 (ip), vehicle: saline with Tween-80) 94 % of control; (dose: 200.0 mg/kg/injection, schedule: Q01DX001 (ip), vehicle: saline with Tween-80) 94 % of control.
